Source: patent publication EP3797781A1, “USE OF EC-7072 AND SYNERGIC COMPOSITIONS THEREOF IN TREATMENT OF CHRONIC LYMPHOCYTIC LEUKEMIA” (priority 2019, dated 2021)

What was measured:
MEC-1 cells = assay: Immunoblot of phosphorylated and total STAT3 in MEC-1 cells; assay type: cell-based; conditions: 200 nM, 0-, 3-, 8- and 12-hour time points; reduction of p-STAT3
OP9 cells = assay: Viability of OP9 stromal cells exposed to EC-7072; assay type: cell-based; conditions: exposure to EC-7072 for 24 hours
isolated CLL cells = assay: Western blotting of isolated CLL cells; assay type: cell-based, human
Method: Isolated CLL cells were treated with 200 nM EC-7072 for 3, 8 and 12 hours and lysed with lysis buffer [50 mM Tris-HCl (pH 8), 150 mM NaCl, 1 mM EDTA, 1% NP-40, 20 mM NaF, EDTA-free protease inhibitor cocktail and phosSTOPTM (Roche)]. After heat denaturation, 25 µg protein were resolved on 10% and 15% SDS-PAGE gels and transferred to PVDF membranes (Sigma-Aldrich). Membranes were blocked with 5% BSA and incubated overnight at 4 °C with the corresponding primary antibodies (p-PLCγ2 (Y759), p-ERK1/2 (T202/Y204), p-STAT3 (Y705), p-LYN (Y507), STAT3 and GAPDH from Cell Signaling, and PLCγ2, ERK1/2, LYN, BCL-xL and Noxa from Santa Cruz Biotechnology). Blots were developed with secondary antibodies conjugated to IRDye680 or IRDye800 (Li-Cor Biosciences) and signal was detected on an Odyssey scanner.
Levels of phosphorylated and total proteins were quantified following Western blotting by densitometric analysis employing ImageJ software (https://imagej.nih.gov/ij/). To determine relative protein amounts, signal intensities were first normalized to GAPDH and the ratio between phosphorylated and total proteins was then calculated.
Western blot analysis of BCL-xL and Noxa in isolated CLL cells (n = 3) treated with 200 nM EC-7072 for the indicated times was performed (Figure 6E).
The inhibition of the tonic BCR pathway by EC-7072 was evaluated by: • (i) incubating PBMCs from patients with CLL, following treatment with 200 nM EC-7072, for 8 hours. Surface expression of CD79A (Figure 7A), CD79B (Figure 7B) and IgM (Figure 7C) in leukemia cells (n = 5 - 6) was assessed by flow cytometry and the MFI was normalized to the control (DMSO) condition; • (ii) incubating isolated leukemia cells from patients with CLL (n = 10), following treatment with EC-7072 (200 nM), for 8 hours. Phosphorylation levels of p-SYK (Figure 7D), p-BTK (Figure 7E) and p-PLCy2 (Figure 7F) proteins and p-ERK1/2 (Figure 7G), p-AKT (Figure 7H), p-p65 NPκB (Figure 7I) and p-STAT3 (Figure 7J) were evaluated by phosphoflow and the MFI was normalized to the control (DMSO) from each individual patient; • (iii) incubating PBMCs from patients with CLL (n = 8), following treatment with EC-7072 (200 nM), for 8 hours. Viability was determined by DiOC6(3)/PI staining and normalized to the control (DMSO) condition for each individual patient to obtain the mean percentage of viable [DiOC6(3)^+] cells (Figure 7K); • (iv) incubating isolated CLL cells (n = 4) stimulated with CD40L (100 ng/mL) or IL-6 (40 ng/mL) for 15 minutes and detecting respective phosphorylation levels of p65 NF-κB (Figure 7L) and STAT3 (Figure 7M) by phosphoflow to obtain the mean MFI normalized to the control (DMSO) condition for each individual patient; • (v) incubating isolated leukemia cells from 3 patients with CLL, following treatment with 200 nM EC-7072, for 3, 8 and 12 hours. Protein lysates were immunoblotted to detect the phosphorylated (p-LYN, p-PLCγ2, p-STAT3 and p-ERK1/2) and total protein (LYN, PLCγ2, STAT3 and ERK1/2) levels (Figure 7N); • (vi) incubating isolated leukemia cells from 3 patients with CLL, following treatment with 200 nM EC-7072, for 3, 8 and 12 hours and immunoblotting of protein lysates to detect p-LYN, LYN, p-PLCγ2, PLCγ2, p-STAT3, STAT3, p-ERK1/2 and ERK1/2. […]

[1] = 200 nM, 3, 8 and 12 hours, 3 patients

Question: What does the source list for CO[C@@H]([C@@H]1Cc2cc3cc(O[C@H]4C[C@@H](O[C@H]5C[C@@H](O)[C@H](O)[C@@H](C)O5)[C@H](O)[C@@H](C)O4)c(C)c(O)c3c(O)c2C(=O)[C@H]1O[C@H]1C[C@@H](O[C@H]2C[C@@H](O[C@H]3C[C@](C)(O)[C@H](O)[C@@H](C)O3)[C@@H](O)[C@@H](C)O2)[C@H](O)[C@@H](C)O1)[C@@H](O)C(C)=O [EC-7072, mithramycin SK]?
Answer: levels of p-STAT3 in MEC-1 (MEC-1 cells): further confirmed; viability of OP9 cells (OP9 cells): did not affect their viability; levels of p-STAT3 (Western blotting) (isolated CLL cells; [1]): diminished; p-LYN, p-PLCγ2 and p-ERK1/2 (Western blotting) (isolated CLL cells; [1]): time-dependent reduction; total amount of LYN, PLCγ2 and STAT3 (isolated CLL cells; [1]): downregulate; levels of the antiapoptotic protein BCL-xL (isolated CLL cells; 200 nM, time-dependent, n = 3): decreased; levels of the proapoptotic protein Noxa (isolated CLL cells; 200 nM, time-dependent, n = 3): increase
